Experimental data: PubChem BioAssay (NCI)
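Step 1: Grow cells in 96-well plates. Step 2: Expose to compound for 48 hours at 5 concentrations. Step 3: Interpolate endpoints linearly; if unreached, use highest concentration. TGI: total growth inhibition.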

Columns and labels:
Assay in all cases: NCI-60 cell line screen, 48 h
[1] = system: PC-3 prostate
[2] = system: UACC-257 melanoma
[3] = system: HL-60(TB) leukemia
[4] = system: BT-549 breast
[5] = system: U251 CNS
[6] = system: MDA-MB-231 breast
[7] = system: SK-MEL-28 melanoma
[8] = system: EKVX NSCLC
[9] = system: SK-MEL-2 melanoma
[10] = system: IGROV1 ovarian
[11] = system: LOX IMVI melanoma
[12] = system: SNB-19 CNS
[13] = system: RXF 393 renal
[14] = system: T-47D breast
[15] = system: MDA-N
[16] = system: SW-620 colon
[17] = system: SF-539 CNS
[18] = system: ACHN renal
[19] = system: NCI-H23 lung
[20] = system: SK-OV-3 ovarian
[21] = system: MOLT-4 leukemia
[22] = system: NCI/ADR-RES ovarian
[23] = system: TK-10 renal
[24] = system: OVCAR-3 ovarian
[25] = system: SF-268 CNS
[26] = system: HT29 colon
[27] = system: HCT-116 colon
[28] = system: A498 renal
[29] = system: SNB-75 CNS
[30] = system: A549 NSCLC
[31] = system: UACC-62 melanoma
[32] = system: CCRF-CEM leukemia
[33] = system: UO-31 renal
[34] = system: DU-145 prostate
[35] = system: SF-295 CNS
[36] = system: NCI-H522 lung
[37] = system: MALME-3M melanoma
[38] = system: HOP-92 NSCLC
[39] = system: 786-0 renal
[40] = system: NCI-H460 lung
[41] = system: SN12C renal
[42] = system: HCT-15 colon
[43] = system: HS 578T breast
[44] = system: SK-MEL-5 melanoma
[45] = system: KM12 colon
[46] = system: COLO 205 colon
[47] = system: RPMI-8226 leukemia
[48] = system: MDA-MB-435
[49] = system: OVCAR-5 ovarian
[50] = system: NCI-H226 lung
[51] = system: HOP-62 NSCLC
[52] = system: K-562 leukemia
[53] = system: M14 melanoma
[54] = system: OVCAR-8 ovarian
[55] = system: CAKI-1 renal

Measured: TGI

COC(=O)Cc1c([C@H]2[C@H](CC(=O)OC)c3ccccc3N2C(C)=O)[nH]c2ccccc12
> 100 µM: [1] | [2] | [3] | [4] | [5] | [6] | [7] | [8] | [9] | [10] | [11] | [12] | [13] | [14] | [15] | [16] | [17] | [18] | [19] | [20] | [21] | [22] | [23] | [24] | [25] | [26] | [27] | [28] | [29] | [30] | [31] | [32] | [33] | [34] | [35] | [36] | [37] | [38] | [39] | [40] | [41] | [42] | [43] | [44] | [45] | [46] | [47] | [48] | [49] | [50] | [51] | [52] | [53] | [54] | [55]
